{"source": "paper PMC4764977", "about": "“AZD8797 is an allosteric non-competitive modulator of the human CX3CR1 receptor” (Biochemical Journal, 2016)", "key": {"CX3CR1 (RPMI-8226 cells)": {"target": "T1, CX3CR1 (RPMI-8226 cells) (Homo sapiens, UniProt P49238)", "T1 construct": "RPMI-8226 cells, a human B-lymphocyte cell line endogenously expressing human CX3CR1; CCL-155; host or cells: RPMI-8226", "T1 sequence (P49238 1-355)": "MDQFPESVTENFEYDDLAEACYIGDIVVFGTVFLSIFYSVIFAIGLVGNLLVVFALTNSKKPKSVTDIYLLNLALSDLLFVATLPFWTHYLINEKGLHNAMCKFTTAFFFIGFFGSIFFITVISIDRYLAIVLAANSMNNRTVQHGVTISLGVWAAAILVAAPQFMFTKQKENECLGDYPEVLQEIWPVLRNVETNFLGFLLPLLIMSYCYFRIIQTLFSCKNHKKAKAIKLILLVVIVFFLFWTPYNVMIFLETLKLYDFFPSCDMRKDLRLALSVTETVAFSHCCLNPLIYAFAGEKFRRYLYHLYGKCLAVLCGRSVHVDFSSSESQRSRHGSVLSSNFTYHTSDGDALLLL", "assay": "Dynamic mass redistribution (DMR), RPMI-8226 cells", "format": "cell-based", "experimental": "(§1) CHO-hCX3CR1 cells were seeded at 12000 cells per well in DMEM with 10% FBS and RPMI-8226 cells at 8000 cells per well in RPMI 1640 medium with GlutaMAX and 20% FBS on 384-well fibronectin-coated EPIC™ biosensor plates (Corning) and cultured at 37°C for 24 h. At 18–24 h prior to compound treatment, the medium was replaced with serum-free medium with or without 100 ng·ml^−1 PTX. Cells were then washed with assay buffer (HBSS, 20 mM HEPES (pH 7.4) and 0.01% BSA) and allowed to equilibrate at 26°C for 1 h inside the EPIC™ plate reader. Following equilibration, a baseline scan was performed before adding AZD8797 or CX3CL1 using a CyBi-Well vario (CyBio). Dynamic mass redistribution (DMR) was then measured during a 60 min scan. As in the [^35S]GTPγS binding assay, the final DMSO concentration was held constant at 1%."}, "CX3CR1 [1]": {"test_system": "CX3CR1", "design": "method as in PMID 24706865", "settings": "cited from earlier work"}, "CX3CR1 [2]": {"target": "T2, CX3CR1 (Homo sapiens, UniProt P49238)", "T2 sequence (P49238 1-355)": "T1 sequence (P49238 1-355)", "assay": "[35S]GTPγS accumulation assay, CHO-hCX3CR1 membranes", "format": "biochemical", "design": "host or cells: CHO-K1", "quoted_text": "Adherent CHO-K1 cells stably expressing human CX3CR1 (CHO-hCX3CR1) were grown in F12 medium with GlutaMAX, 10% FBS (Sigma–Aldrich) and 400 μg·ml^−1 geneticin and harvested at 80% confluency. Cells were washed in PBS and lysed with an Ultra-Turrax Homogenizer in 50 mM Tris/HCl (pH 7.4) and 1 mM EDTA with Complete™ protease inhibitor (Roche). After centrifugation at 1000 g for 10 min, membranes were collected by ultracentrifugation at 100000 g for 45 min at 4°C. The membranes were resuspended in 10 mM Tris/HCl (pH 7.4), 1 mM EDTA and 10% sucrose, divided into aliquots, frozen in liquid nitrogen and stored in −80°C. Protein concentration was determined using the BCA method (Thermo Fisher Scientific).\n0.56 μCi·ml^−1 [^35S]GTPγS and EC80 of CX3CL1 were then added. The plate was incubated at 30°C for 1 h and subsequently unbound [^35S]GTPγS was separated from bound by vacuum filtration to a Printed Filtermat B (PerkinElmer) using a Skatron Micro96 harvester and dried at 50°C for 1 h. The filters were soaked with a melt-on scintillator sheet (MeltiLex, PerkinElmer), sealed using a MeltiLex heat sealer and measured in a MicroBeta Trilux reader (PerkinElmer)."}, "CX3CR1 [3]": {"target": "T2, CX3CR1", "assay": "Dynamic mass redistribution (DMR), CHO-hCX3CR1 cells", "format": "cell-based", "design": "host or cells: CHO-K1", "experimental": "as §1"}, "CX3CR1 [4]": {"target": "T2, CX3CR1", "assay": "PathHunter β-arrestin recruitment assay, CHO-K1 CX3CR1 β-arrestin cell line", "format": "cell-based", "design": "host or cells: CHO-K1", "experimental": "β-Arrestin recruitment was measured using the PathHunter™ enzyme fragment complementation assay from DiscoveRx and carried out according to the manufacturer's instructions. In short, 3500 cells per well in Opti-MEM were incubated together with different concentrations of AZD8797 and CX3CL1 in a 384-well plate. After 90 min of incubation at 37°C, detection reagent was added and incubation continued for 1 h at room temperature, before reading the plate with a Victor^2 luminescence plate reader (PerkinElmer). As in the [^35S]GTPγS binding assay, the final DMSO concentration was held constant at 1%."}, "CX3CR1 [5]": {"target": "T2, CX3CR1", "assay": "Equilibrium saturation binding, CHO-hCX3CR1 membranes", "design": "host or cells: CHO-K1", "experimental": "Cells were washed in PBS and lysed with an Ultra-Turrax Homogenizer in 50 mM Tris/HCl (pH 7.4) and 1 mM EDTA with Complete™ protease inhibitor (Roche). […] Protein concentration was determined using the BCA method (Thermo Fisher Scientific). […] The filter plate was washed in ice-cold 25 mM HEPES (pH 7.4), 5 mM MgCl2, 1 mM CaCl2 and 500 mM NaCl and dried at 50°C for 1 h. Scintillation cocktail, Optiphase Supermix (PerkinElmer) was added to each well and the radioactivity was measured using a MicroBeta Trilux reader (PerkinElmer). […] The DMSO concentration was held constant at 1%. where Kd is the radioligand dissociation constant. Saturation binding isotherms were analysed by non-linear regression and globally fitted to a hyperbolic one-site binding model taking into account both NSB and total binding to calculate the total receptor number (Bmax) and radioligand dissociation constant (Kd): […] NSB=NS·X+Background, where NS is the concentration-dependent NSB. To visualize the manner of binding of CX3CL1 and AZD8797, a diagnostic affinity ratio plot designed to compare strictly competitive behaviour with allosteric interactions was used. […] For single site competitive interactions, the resulting linear plot has the slope of 1.0. For allosteric but competitive interactions, the slope will start at 1.0 but progressively deviate from unity, eventually reaching a limit governed by the allosteric ternary complex model co-operativity factor α [21, 22]."}, "CX3CR1 [6]": {"target": "T2, CX3CR1", "assay": "125I-CX3CL1 competition binding, CHO-hCX3CR1 membranes", "design": "host or cells: CHO-K1", "experimental": "(§2) Adherent CHO-K1 cells stably expressing human CX3CR1 (CHO-hCX3CR1) were grown in F12 medium with GlutaMAX, 10% FBS (Sigma–Aldrich) and 400 μg·ml^−1 geneticin and harvested at 80% confluency. Cells were washed in PBS and lysed with an Ultra-Turrax Homogenizer in 50 mM Tris/HCl (pH 7.4) and 1 mM EDTA with Complete™ protease inhibitor (Roche). […] Protein concentration was determined using the BCA method (Thermo Fisher Scientific). […] The filter plate was washed in ice-cold 25 mM HEPES (pH 7.4), 5 mM MgCl2, 1 mM CaCl2 and 500 mM NaCl and dried at 50°C for 1 h. Scintillation cocktail, Optiphase Supermix (PerkinElmer) was added to each well and the radioactivity was measured using a MicroBeta Trilux reader (PerkinElmer). All analysis and calculations were performed using GraphPad Prism 6.01. Functional and competition binding data were analysed using non-linear regression and fitted to a sigmoidal dose-response with variable slope according to the following equation: […] where Y is the amount of radioligand bound (cpm) or functional effect, Top denotes maximal asymptotic binding, and Bottom denotes the minimal asymptotic binding. XC50 is either the EC50 or the IC50 value, and X is the logarithm of the test compound concentration. Ki values were calculated from IC50 values using the Cheng–Prusoff equation: […]"}, "CX3CR1 [7]": {"target": "T2, CX3CR1", "assay": "[3H]AZD8797 competition binding, CHO-hCX3CR1 membranes", "design": "host or cells: CHO-K1", "settings": "2 nM [3H]AZD8797, n=7", "experimental": "as §2"}, "[8]": {"settings": "increasing concentrations of unlabelled compound"}}, "data": [{"molecule": "CC(C)C[C@H](CO)Nc1nc(S[C@@H](C)c2ccccc2)nc2nc(N)sc12", "note": "[AZD8797]", "values": [{"measurement": "Effect of PTX treatment on DMR signal", "setting": "CX3CR1 (RPMI-8226 cells); 100 ng·ml^−1 PTX", "result": "reduced"}, {"measurement": "EC50", "setting": "CX3CR1 (RPMI-8226 cells); n=3", "result": 0.41, "unit": "µM"}, {"measurement": "Efficacy in rat model for multiple sclerosis", "setting": "CX3CR1 [1]", "result": "efficacy"}, {"measurement": "Agonistic effect in [35S]GTPγS accumulation", "setting": "CX3CR1 [2]; compound alone, results not shown", "result": "No agonistic effect"}, {"measurement": "IC50", "setting": "CX3CR1 [2]; response from 2 nM CX3CL1 (EC80), n > 24, read-out: IC50, inhibition of CX3CL1-induced [35S]GTPγS accumulation", "result": 0.34, "unit": "µM"}, {"measurement": "Concentration needed for agonist response vs concentration needed to block CX3CL1 binding and functional response in membranes", "setting": "CX3CR1 [3]; CHO-hCX3CR1 cells vs purified membranes", "result": "more than 10 fold"}, {"measurement": "Effect of PTX treatment on DMR signal", "setting": "CX3CR1 [3]; CHO-hCX3CR1 cells, 100 ng·ml^−1 PTX", "result": "reduced"}, {"measurement": "Maximum effect, DMR", "setting": "CX3CR1 [3]; CHO-hCX3CR1 cells, compound alone, no plateau, n=3", "result": "79 % of CX3CL1"}, {"measurement": "EC50", "setting": "CX3CR1 [3]; CHO-hCX3CR1 cells, compound alone, no plateau, n=3, read-out: Potency, DMR agonism", "result": "> 5", "unit": "µM"}, {"measurement": "Antagonist response in DMR", "setting": "CX3CR1 [3]; challenging EC80 of CX3CL1 with different concentrations, cell line not specified, results not shown", "result": "could not measure any antagonist response"}, {"measurement": "Increase of CX3CL1 efficacy in β-arrestin recruitment", "setting": "CX3CR1 [4]; 16 and 140 nM AZD8797, efficacy enhanced, not potency", "result": "~2", "unit": "fold"}, {"measurement": "Effect on β-arrestin recruitment, compound alone", "setting": "CX3CR1 [4]; AZD8797 alone", "result": "no effect"}, {"measurement": "CX3CL1-induced β-arrestin recruitment at higher concentrations", "setting": "CX3CR1 [4]; higher concentrations of AZD8797", "result": "almost abolished"}, {"measurement": "Effect on Bmax of 125I-CX3CL1 saturation binding", "setting": "CX3CR1 [5]; [8]", "result": "decreased"}, {"measurement": "Effect on Kd of 125I-CX3CL1 saturation binding", "setting": "CX3CR1 [5]; [8]", "result": "without any effect"}, {"measurement": "Kd", "setting": "CX3CR1 [5]; one-site model, n=4", "result": 0.012, "unit": "µM"}, {"measurement": "Lower potency than unlabelled CX3CL1 in displacing 125I-CX3CL1", "setting": "CX3CR1 [6]", "result": 1000, "unit": "fold"}, {"measurement": "EC50", "setting": "CX3CR1 [6]; 10 pM 125I-CX3CL1, n=3, read-out: EC50, displacement of 125I-CX3CL1", "result": 0.31, "unit": "µM"}, {"measurement": "Ki", "setting": "CX3CR1 [7]", "result": 0.0073, "unit": "µM"}]}]}
